What all share (assay): NCI tumour cell line growth inhibition, 48 h
For assay [1], the system named is ACHN.
Assay [2] relates to BT-549.
Assay [3] deals with CCRF-CEM.
Assay [4] deals with HCC 2998.
The subject of assay [5] is HCT-15.
The subject of assay [6] is HL-60.
For assay [7], the system named is HOP-62.
Assay [8] concerns MDA-MB-231.
Assay [9] has as its system MOLT-4.
Assay [10] has as its system NCI/ADR-RES.
In assay [11] the test system is OVCAR-3.
Assay [12] relates to OVCAR-4.
The test system of assay [13] is OVCAR-5.
Assay [14] relates to RXF 393.
For assay [15], the system named is SK-OV-3.
The test system of assay [16] is SNB-19.
The subject of assay [17] is UACC-257.
Assay [18] deals with UACC-62.
Assay [19] has as its system SNB-75.

SMILES strings stand for the structures.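 A five-concentration, 48-hour dose response in 96-well plates underlies each endpoint, interpolated linearly between surrounding concentrations. GI50 marks 50% less growth.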 Active and inactive are the calls of the source. Rule as the data show it: active = GI50 up to about 1.1 µM and inactive = higher.

As to `Nc1ccc2c(c1)S(=O)(=O)c1cc(O)ccc1O2`, the GI50 in [1] was > 100 µM (inactive); in [2] it was 45.6 µM (inactive); in assay [3] it was > 100 µM (inactive); in [4] it was > 100 µM (inactive); in assay [5], greater than 100 µM; in [6], > 100 µM (inactive). In addition, the GI50 in assay [7], in [8], in assay [9], in assay [10], in assay [11] and in assay [12] was > 100 µM (inactive) throughout. For the same compound, the GI50 in assay [13] is > 100 µM (inactive); in assay [14], 48.3 µM (inactive); in assay [15], > 100 µM (inactive); in assay [16] it was > 100 µM (inactive); in assay [17], > 100 µM (inactive); in assay [18], > 100 µM (inactive).

Consider `Cc1ccc(/N=N/C(=N\c2ccc(Cl)cc2)c2ccc(N(CCC#N)CCC#N)cc2)cc1`, for which the GI50 in assay [1] was 42 µM (inactive); in [2], 16.7 µM (inactive); in assay [3] it was 21.6 µM (inactive); in assay [4] it was 18.8 µM (inactive); in assay [5], 14.2 µM; in assay [7] it was 58.3 µM (inactive). For the same compound, the GI50 is 25.8 µM (inactive) in assay [8]; > 100 µM (inactive) in assay [9]; 57.8 µM (inactive) in [10]; 33.4 µM (inactive) in [11]; 51.4 µM (inactive) in assay [12]; > 100 µM (inactive) in [13]. Besides, the GI50 was 36.8 µM (inactive) in assay [14]; > 100 µM (inactive) in assay [15]; > 100 µM (inactive) in assay [16]; 60.3 µM (inactive) in [19]; 12.4 µM (inactive) in [17]; 11.8 µM (inactive) in [18].

`CC1=C(\C=C/C(C)=C/C=C/C(C)=C/C=C/C=C(C)\C=C\C=C(C)/C=C/C2=C(C)CCCC2(C)C)C(C)(C)CCC1`: the GI50 in assay [1] is > 100 µM (inactive); in [2], 64.4 µM (inactive); in [3], > 100 µM (inactive); in assay [4], > 100 µM (inactive); in assay [5], greater than 100 µM; in [7] it was > 100 µM (inactive). Moreover, the GI50 in assay [8], in assay [9], in [10], in assay [11], in assay [12] and in assay [13] was > 100 µM (inactive) in each case. The GI50 in [14] is 33 µM (inactive); in [15], > 100 µM (inactive); in assay [16], > 100 µM (inactive); in assay [19], > 100 µM (inactive); in [17], > 100 µM (inactive); in assay [18], > 100 µM (inactive).

As to `COc1cc(C2SCC(=O)N2c2ccc(NC(=O)c3ccc(N4C(=O)CSC4c4cc(OC)c(OC)c(OC)c4)cc3)cc2)cc(OC)c1OC` (configuration not stated), the GI50 in [1] was 63.7 µM (inactive); in [2] it was 56 µM (inactive); in [3], 45.5 µM (inactive); in assay [4], > 100 µM (inactive); in [5] it was 38.5 µM; in [7] it was 76.4 µM (inactive). Further, the GI50 in assay [8] was > 100 µM (inactive); in assay [9], 34.8 µM (inactive); in [10], 25.2 µM (inactive); in [11], 37.1 µM (inactive); in assay [12] it was 33 µM (inactive); in assay [13] it was 95.1 µM (inactive). In addition, the GI50 was 58.6 µM (inactive) in assay [14]; > 100 µM (inactive) in [15]; 84.1 µM (inactive) in assay [16]; 22.2 µM (inactive) in assay [19]; 60.5 µM (inactive) in assay [17]; 24.9 µM (inactive) in assay [18].

As to `CC(C)(C)n1c(=O)n(C(=O)C(Cl)(Cl)Cl)n(C(=O)C(Cl)(Cl)Cl)c1=O`, the GI50 in [1] is > 100 µM (inactive); in assay [2] it was > 100 µM (inactive); in assay [3], > 100 µM (inactive); in [4], > 100 µM (inactive); in assay [5] it was greater than 100 µM; in assay [6], > 100 µM (inactive). For the same compound, the GI50 in assay [7], in assay [8], in [9], in assay [10], in [11] and in assay [12] was > 100 µM (inactive) in each case. Also, the GI50 in assay [13], in assay [14], in assay [15], in assay [16], in assay [17] and in assay [18] was > 100 µM (inactive) each time.

Regarding `O=C(/C=C/c1ccc2c(c1)OCO2)Cc1nc2ncccc2[nH]c1=O`, the GI50 in assay [1] is 32.2 µM (inactive); in [2], > 100 µM (inactive); in assay [3], > 100 µM (inactive); in assay [4], > 100 µM (inactive); in assay [5], 92.7 µM; in [6], > 100 µM (inactive). For the same compound, the GI50 is 39 µM (inactive) in [7]; > 100 µM (inactive) in assay [8]; > 100 µM (inactive) in [9]; > 100 µM (inactive) in assay [10]; > 100 µM (inactive) in [11]; > 100 µM (inactive) in assay [13]. In addition, the GI50 in assay [14] was 49.4 µM (inactive); in assay [15] it was 98.9 µM (inactive); in [16] it was 63.8 µM (inactive); in [17], > 100 µM (inactive); in assay [18], 9.53 µM (inactive).

Regarding `O=S(=O)(N=S(c1ccc(Cl)cc1)c1ccc(Cl)cc1)c1ccccc1`, the GI50 in [1] is > 100 µM (inactive); in [2], > 100 µM (inactive); in assay [3] it was 59.4 µM (inactive); in assay [4], > 100 µM (inactive); in assay [5] it was 65.8 µM; in [6], 27.5 µM (inactive). Further, the GI50 in assay [7] is > 100 µM (inactive); in assay [8] it was > 100 µM (inactive); in assay [9], 33.8 µM (inactive); in assay [10] it was 63 µM (inactive); in [12] it was 58.5 µM (inactive); in assay [13], > 100 µM (inactive). In addition, the GI50 is 65.3 µM (inactive) in assay [14]; > 100 µM (inactive) in assay [15]; > 100 µM (inactive) in assay [16]; > 100 µM (inactive) in [19]; 77.4 µM (inactive) in assay [17]; 60.3 µM (inactive) in [18].

Regarding `c1ccc(/C(=N\Nc2nc3ccccc3[nH]2)c2ccccn2)cc1`, the GI50 was 0.268 µM (active) in assay [1]; 1.19 µM (inactive) in [2]; 0.0959 µM (active) in assay [3]; 1.73 µM (inactive) in assay [4]; 0.277 µM in [5]; 0.324 µM (active) in assay [7]. For the same compound, the GI50 in assay [8] was 0.415 µM (active); in assay [9], 0.012 µM (active); in assay [10] it was 0.284 µM (active); in assay [11] it was 0.169 µM (active); in [12] it was 0.208 µM (active); in assay [13], 0.733 µM (active). Further, the GI50 in assay [14] is 0.716 µM (active); in [15] it was 0.342 µM (active); in assay [16], 1.22 µM (inactive); in assay [19], 0.531 µM (active); in assay [17] it was 0.298 µM (active); in assay [18] it was 0.82 µM (active).

Regarding `CC[C@H]1C=CCC[C@@]2(C[C@@H]3CC[C@@H]4[C@H](C(=O)OCCCCCCCCCCCCCCCC(=O)N(CCCNC(C)=O)C[C@H](CCNC(C)=O)OC(C)=O)[C@]5(CCC[C@@H](C)O5)NC(=[N+]34)N2)O1`, the GI50 in assay [1] is 0.382 µM (active); in assay [2], 0.453 µM (active); in assay [3] it was 0.00184 µM (active); in assay [4], 0.023 µM (active); in assay [5] it was 0.904 µM; in assay [6], 0.0745 µM (active). The GI50 in assay [7] was 0.494 µM (active); in assay [8] it was 0.0914 µM (active); in assay [9] it was 0.0328 µM (active); in [10], 2.74 µM (inactive); in assay [11] it was 0.158 µM (active); in assay [12] it was 0.183 µM (active). Moreover, the GI50 in assay [13] was 0.0557 µM (active); in [14], 0.187 µM (active); in [15] it was 1.43 µM (inactive); in [16], 0.533 µM (active); in [17], 0.0281 µM (active); in assay [18] it was 0.0752 µM (active).

For `C(=C/c1ccc2nc(-c3ccc(/C=C/C=N/NC4=NCCCN4)cc3)cn2c1)/C=N/NC1=NCCCN1`, the GI50 was 46.7 µM (inactive) in [1]; > 100 µM (inactive) in assay [2]; 35.7 µM (inactive) in [3]; 45.4 µM (inactive) in [4]; greater than 100 µM in assay [5]; > 100 µM (inactive) in assay [7]. The GI50 in [8] was 15.2 µM (inactive); in [9] it was 42.2 µM (inactive); in assay [10] it was 22.1 µM (inactive); in [11], > 100 µM (inactive); in assay [12], > 100 µM (inactive); in [13] it was 49.9 µM (inactive). For the same compound, the GI50 in assay [14] was 23.8 µM (inactive); in [15], > 100 µM (inactive); in assay [16], 89.7 µM (inactive); in assay [19], 35.7 µM (inactive); in assay [17] it was 10.6 µM (inactive); in [18], 30.1 µM (inactive).

Take `CCN(CC)c1nc(=O)c(C(=O)C(C)(C)C)c(C(C)(C)C)o1`: the GI50 in assay [1] is > 100 µM (inactive); in assay [2], > 100 µM (inactive); in assay [3] it was > 100 µM (inactive); in assay [4], > 100 µM (inactive); in assay [5], greater than 100 µM; in assay [6], > 100 µM (inactive). Besides, the GI50 in [7], in assay [8], in assay [9], in [10], in assay [12] and in [13] was > 100 µM (inactive) each time. In addition, the GI50 was > 100 µM (inactive) in assay [14]; > 100 µM (inactive) in assay [15]; 98.4 µM (inactive) in assay [16]; > 100 µM (inactive) in [19]; > 100 µM (inactive) in assay [17]; > 100 µM (inactive) in assay [18].

For the origin of these results see ChEMBL document CHEMBL1201862, “PubChem BioAssay data set” (2004).
